pIC50: −log10 of the molar value.
Molecular target: human TLR7 (Homo sapiens (Human), UniProt Q9NYK1)
Assay: Test for evaluating the inhibition of the activation of human TLR7 (SEAP reporter, TLR7/NF-κB/SEAPorter HEK293 cell)
Assay type: cell-based
Details: R-848 200 nmol/L; for inhibitory effect against TLR7 in the test for evaluating inhibition of the activation of TLR7: SEAP activity, result in words; for pIC50: SEAP reporter
How it was run: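 HEK293 cells stably expressing full-length human TLR7 and an NF-κB-driven SEAP reporter. They were grown in DMEM with 10% FBS and blasticidin, and seeded at 5×10^4 cells/well overnight at 37° C, 5% CO2. Inhibition of TLR7 activation was read as SEAP output.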

human TLR7, sequence (Q9NYK1 27-1049): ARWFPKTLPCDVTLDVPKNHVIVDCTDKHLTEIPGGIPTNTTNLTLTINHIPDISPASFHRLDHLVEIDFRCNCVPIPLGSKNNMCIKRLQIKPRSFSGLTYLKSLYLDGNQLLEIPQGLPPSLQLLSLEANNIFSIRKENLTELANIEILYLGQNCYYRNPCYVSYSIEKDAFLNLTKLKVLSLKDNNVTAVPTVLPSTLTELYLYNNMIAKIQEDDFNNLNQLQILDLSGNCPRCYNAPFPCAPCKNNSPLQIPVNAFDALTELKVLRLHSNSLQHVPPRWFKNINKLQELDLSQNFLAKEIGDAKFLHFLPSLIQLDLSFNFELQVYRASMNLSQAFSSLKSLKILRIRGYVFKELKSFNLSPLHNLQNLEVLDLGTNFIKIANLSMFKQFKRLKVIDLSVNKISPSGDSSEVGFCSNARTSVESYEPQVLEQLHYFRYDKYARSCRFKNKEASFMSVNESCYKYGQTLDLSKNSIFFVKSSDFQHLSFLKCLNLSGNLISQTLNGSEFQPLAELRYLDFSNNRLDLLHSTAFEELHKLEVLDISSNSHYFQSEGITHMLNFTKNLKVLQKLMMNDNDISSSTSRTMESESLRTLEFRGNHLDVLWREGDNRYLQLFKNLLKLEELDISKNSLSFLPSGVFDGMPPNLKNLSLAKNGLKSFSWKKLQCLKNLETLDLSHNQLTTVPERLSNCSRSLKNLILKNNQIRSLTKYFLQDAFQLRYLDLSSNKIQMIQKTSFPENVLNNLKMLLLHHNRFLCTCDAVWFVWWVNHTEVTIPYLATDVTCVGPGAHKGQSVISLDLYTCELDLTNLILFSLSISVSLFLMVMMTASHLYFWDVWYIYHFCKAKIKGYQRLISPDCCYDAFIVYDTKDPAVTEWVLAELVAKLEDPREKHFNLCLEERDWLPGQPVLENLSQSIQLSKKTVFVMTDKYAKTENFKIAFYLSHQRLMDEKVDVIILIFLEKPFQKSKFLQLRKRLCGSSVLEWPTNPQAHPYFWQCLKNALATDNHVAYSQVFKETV

Row | Compound | inhibitory effect against TLR7 in the test for evaluating inhibition of the activation of TLR7 | pIC50
1 | COc1nc(C)c2nc(-c3cncc(C#N)c3)n(Cc3ccc(OC4CC5CCC(C4)N5C)cc3F)c2n1 (stereo not drawn) [Example 295, 5-[9-(2-fluoro-4-{[(3-endo)-8-methyl-8-azabicyclo[3.2.1]oct-3-yl]oxy}benzyl)-2-methoxy-6-methyl-9H-purin-8-yl]pyridine-3-carbonitrile] | potent inhibitory effect against TLR7 | 7.89
2 | COc1nc(C)c2nc(-c3cncc(F)c3)n(Cc3ccc(C4CCN(C(=O)OC(C)(C)C)CC4)cc3F)c2n1 [Example 385] |  | 7.03
3 | CCCCOc1nc(N)c2nc(-c3cncc(COC)c3)n(Cc3ccccc3)c2n1 [Example 29] |  | 6.00
4 | COc1nc(C)c2nc(-c3cncc(F)c3)n(Cc3ccc(CC4CCN(C)CC4)cc3F)c2n1 [Example 283] | potent inhibitory effect against TLR7 | 7.68
5 | CCOc1nc(C)c2nc(-c3cncc(F)c3)n(Cc3cccnc3)c2n1 [Example 168] |  | 5.85
6 | COc1nc(C)c2nc(-c3cncc(F)c3)n(Cc3ccc(CN4C[C@@H]5C[C@H]4CN5)cc3)c2n1 [Example 125] | potent inhibitory effect against TLR7 | 7.07
7 | COc1nc(C)c2nc(-c3cncc(F)c3)n(Cc3ccc(CN4C[C@@H]5C[C@H]4CN5C)cc3F)c2n1 [Example 280, 9-(2-fluoro-4-{[(1S,4S)-5-methyl-2,5-diazabicyclo[2.2.1]hept-2-yl]methyl}benzyl)-8-(5-fluoropyridin-3-yl)-2-methoxy-6-methyl-9H-purine] | potent inhibitory effect against TLR7 | 8.52
8 | CCOc1nc(C)c2nc(-c3cncc(F)c3)n(Cc3ncc(C4=CN5CCC4CC5)cc3F)c2n1 [Example 359] |  | 6.07
9 | CCCCOc1nc(C)c2nc(-c3cncc(OC)c3)n(Cc3ccccc3)c2n1 [Example 142] |  | 5.18
10 | CCOc1nc(N)c2nc(-c3cncc(F)c3)n(Cc3ccc(CN(C)CC(F)F)cc3)c2n1 [Example 102] |  | 6.09
11 | COCCOc1nc(C)c2nc(-c3cncc(F)c3)n(Cc3ccc(CN4CCOCC4)cc3)c2n1 [Example 114] |  | 6.52
12 | CCOc1nc(N)c2nc(-c3cncc(F)c3)n(Cc3ccc(O[C@H]4CCN(C)C4)nc3)c2n1 [Example 39] |  | 6.09
13 | CCOc1nc(N)c2nc(-c3cncc(F)c3)n(Cc3cc(OC)ccc3F)c2n1 [Example 43] |  | 5.70
14 | CCOc1nc(C)c2nc(-c3cncc(F)c3)n(Cc3ccc(O[C@@H]4CN5CCC4CC5)nc3)c2n1 [Example 71, 9-({6-[(3S)-1-azabicyclo[2.2.2]oct-3-yloxy]pyridin-3-yl}methyl)-2-ethoxy-8-(5-fluoropyridin-3-yl)-6-methyl-9H-purine] | potent inhibitory effect against TLR7 | 7.24
15 | CCN1CC(COc2ccc(Cn3c(-c4cncc(F)c4)nc4c(C)nc(OC)nc43)c(F)c2)C1 [Example 287] | potent inhibitory effect against TLR7 | 7.54
16 | CCOc1nc(C)c2nc(-c3cncc(F)c3)n(Cc3ccc(CO)cc3)c2n1 [Example 78] |  | 5.89
17 | CCCCOc1nc(N)c2nc(-c3cccc(Cl)c3)n(Cc3ccccc3)c2n1 [Example 13] |  | 5.03
18 | CCOc1nc(N)c2nc(-c3cncc(C(F)F)c3)n(Cc3ccccc3)c2n1 [Example 30] |  | 5.55
19 | CCOc1nc(N)c2nc(-c3cncc(F)c3)n(Cc3ccc4c(c3)CN(C)C4)c2n1 [Example 137] |  | 6.08
20 | CCOc1nc(C)c2nc(-c3cncc(F)c3)n(Cc3ccc(C4CN5CCC4CC5)cc3OC)c2n1 (centres unmarked) [Example 372, 9-[4-(1-azabicyclo[2.2.2]oct-3-yl)-2-methoxybenzyl]-2-ethoxy-8-(5-fluoropyridin-3-yl)-6-methyl-9H-purine] | potent inhibitory effect against TLR7 | 7.96
21 | COc1nc(C)c2nc(-c3cncc(F)c3)n(Cc3cc(C4CN5CCC4CC5)ccc3F)c2n1 (centres unmarked) [Example 443, 9-[5-(1-azabicyclo[2.2.2]oct-3-yl)-2-fluorobenzyl]-8-(5-fluoropyridin-3-yl)-2-methoxy-6-methyl-9H-purine] | potent inhibitory effect against TLR7 | 7.77
22 | CCOc1nc(N)c2nc(-c3cncc(F)c3)n(Cc3ccc(CN4C[C@@H]5C[C@H]4CN5C4COC4)cc3)c2n1 [Example 129] | potent inhibitory effect against TLR7 | 7.15

Row | Compound | inhibitory effect against TLR7 in the test for evaluating inhibition of the activation of TLR7 | pIC50
23 | COc1nc(C)c2nc(-c3cncc(F)c3)n(Cc3ccc(C4CN5CCC4CC5)cc3F)c2n1 (centres unmarked) [Example 392, 9-[4-(1-azabicyclo[2.2.2]oct-3-yl)-2-fluorobenzyl]-8-(5-fluoropyridin-3-yl)-2-methoxy-6-methyl-9H-purine] | potent inhibitory effect against TLR7 | 
24 | CCN1CCC(c2ccc(Cn3c(-c4cncc(F)c4)nc4c(C)nc(OC)nc43)c(F)c2)C1 (centres unmarked) [Example 291, 9-[4-(1-ethylpyrrolidin-3-yl)-2-fluorobenzyl]-8-(5-fluoropyridin-3-yl)-2-methoxy-6-methyl-9H-purine] | potent inhibitory effect against TLR7 | 7.77
25 | COc1nc(C)c2nc(-c3cncc(F)c3)n(Cc3ccc(C4=CN5CCC4CC5)cn3)c2n1 [Example 353] |  | 6.30
26 | CCOc1nc(N)c2nc(-c3cncc(F)c3)n(Cc3ccc(OCCN(C)C)cn3)c2n1 [Example 56] |  | 6.18
27 | CCOc1nc(N)c2nc(-c3cncc(F)c3)n(Cc3ccc(C4CCN(C)CC4)cc3)c2n1 [Example 127, 2-Ethoxy-8-(5-fluoropyridin-3-yl)-9-[4-(1-methylpiperidin-4-yl)benzyl]-9H-purine-6-amine] | potent inhibitory effect against TLR7 | 7.28
28 | CCOc1nc(N)c2nc(-c3cncc(F)c3)n(Cc3ccc(C(=O)NCCN(C)C)cc3)c2n1 [Example 145] |  | 5.68
29 | COc1nc(C)c2nc(-c3cnc(C)nc3)n(Cc3ccc(OC4CN5CCC4CC5)cc3F)c2n1 (centres unmarked) [Example 329] |  | 6.92
30 | CCNc1nc(N)c2nc(-c3cncc(F)c3)n(Cc3ccc(CN(C)C)cc3)c2n1 [Example 117] |  | 5.15
31 | COc1nc(C)c2nc(-c3cccnc3)n(Cc3ccc(CN4C[C@@H]5C[C@H]4CN5C)cc3F)c2n1 [Example 310, 9-(2-fluoro-4-{[(1S,4S)-5-methyl-2,5-diazabicyclo[2.2.1]hept-2-yl]methyl}benzyl)-2-methoxy-6-methyl-8-(pyridin-3-yl)-9H-purine] | potent inhibitory effect against TLR7 | 7.55
32 | CCCCOc1nc(C)c2nc(-c3cncc(F)c3)n(Cc3ccc(CN4CCOCC4)cc3)c2n1 [Example 112] |  | 7.00
33 | CCOc1nc(C)c2nc(-c3cncc(F)c3)n(Cc3ccc(C4=CN5CCC4CC5)cn3)c2n1 [Example 352, 9-{[5-(1-Azabicyclo[2.2.2]oct-2-en-3-yl)pyridin-2-yl]methyl}-2-ethoxy-8-(5-fluoropyridin-3-yl)-6-methyl-9H-purine] |  | 6.30
34 | CCOc1nc(C)c2nc(-c3cncc(F)c3)n(Cc3cnc(CC4CCN(C)CC4)cc3OC)c2n1 [Example 281] |  | 6.85
35 | CCOc1nc(N)c2nc(-c3cncc(F)c3)n(Cc3ccc(C(=O)N4CCN(C)CC4)cc3)c2n1 [Example 143, (4-{[6-Amino-2-ethoxy-8-(5-fluoropyridin-3-yl)-9H-purin-9-yl]methyl}phenyl) (4-methylpiperazin-1-yl)methanone] |  | 5.80
36 | CN(C)Cc1ccc(Cn2c(-c3cncc(F)c3)nc3c(N)nc(Cl)nc32)cc1 [Example 118] |  | 6.02
37 | CCOc1nc(N)c2nc(-c3cncc(F)c3)n(Cc3ccc(CN4CCN(C)CC4)cc3)c2n1 [Example 81] | potent inhibitory effect against TLR7 | 7.22
38 | CCCCN(C)c1nc(N)c2nc(-c3cncc(F)c3)n(Cc3ccc(CN(C)C)cc3)c2n1 [Example 155] |  | 5.09
39 | CCN1C2CCC1CC(Oc1ccc(Cn3c(-c4cncc(C#N)c4)nc4c(C)nc(OC)nc43)c(F)c1)C2 (stereo not drawn) [Example 296, 5-[9-(4-{[(3-endo)-8-ethyl-8-azabicyclo[3.2.1]oct-3-yl]oxy}-2-fluorobenzyl)-2-methoxy-6-methyl-9H-purin-8-yl]pyridine-3-carbonitrile] | potent inhibitory effect against TLR7 | 7.68
40 | COc1nc(N)c2nc(-c3cncc(F)c3)n(Cc3ccc(CN4C[C@@H]5C[C@H]4CN5C)cc3)c2n1 [Example 161] | potent inhibitory effect against TLR7 | 7.55
41 | COc1nc(C)c2nc(-c3cncc(C#N)c3)n(Cc3ccc(CN4C[C@@H]5C[C@H]4CN5C)cc3F)c2n1 [Example 308, 5-[9-(2-fluoro-4-{[(1S,4S)-5-methyl-2,5-diazabicyclo[2.2.1]hept-2-yl]methyl}benzyl)-2-methoxy-6-methyl-9H-purin-8-yl]pyridine-3-carbonitrile] | potent inhibitory effect against TLR7 | 7.57
42 | CCOc1nc(N)c2nc(-c3cncc(F)c3)n(Cc3ccc(CN4CC(C)(O)C4)cc3)c2n1 [Example 106] | potent inhibitory effect against TLR7 | 7.21
43 | COc1nc(C)c2nc(-c3cnccc3C)n(Cc3ccc(C4CN5CCC4CC5)cc3F)c2n1 (centres unmarked) [Example 304, 9-[4-(1-azabicyclo[2.2.2]oct-3-yl)-2-fluorobenzyl]-2-methoxy-6-methyl-8-(4-methylpyridin-3-yl)-9H-purine] | potent inhibitory effect against TLR7 | 8.40
44 | CCCCNc1nc(N)c2nc(-c3cncc(OC)c3)n(Cc3ccccc3)c2n1 [Example 26] |  | 4.73

— patent US10703755B2, “Substituted purine derivative” (SUMITOMO DAINIPPON PHARMA CO., LTD., priority 2016, dated 2020)
